Reference: patent US20260347409A1, “CHEMICALLY MODIFIED POLYPEPTIDE” (SUZHOU GLENKOL PHARMA TECHNOLOGY CO., LTD., priority 2023, published 2026)
Where a SMILES comes first, the peptide text is derived from it. [ ]: non-standard residue; d: D form. NMeY = CN[C@@H](Cc1ccc(O)cc1)C(=O)O

Legend:
[1] = tested on: PC-12 cells; assay: Cell viability of PC-12 neural cells under glutamate stimulation (excitotoxic cell death model, propidium iodide/Hoechst staining); format: cell-based, rat; settings: for Normalized cell viability (%): 10 nM compound, 30 min pretreatment, then glutamate stimulation 24 h, normalized to positive control MK-801
Procedure: 1.1. Culture of PC-12 Cell Line and Establishment of Excitotoxic Cell Death Model
PC-12 cells (a […] cell line derived from rat adrenal medulla) were cultured in DMEM/F12 complete medium until eaching 80-90% confluence. The cells were then digested, collected, resuspended, and seeded at density of 5×10^4 cells per well in a 24-well plate precoated with coverslips. Following 26 hours of cell culture, excitotoxic cell death was induced by glutamate stimulation. For model establishment: an appropriate amount of glutamate was weighed and dissolved in DMEM/F12 medium to prepare a stock solution. After filtration, the stock solution was diluted with culture medium and administered to the cells via medium replacement. The cells were further incubated for 24 hours after administration.
1.2 Administration of Small Molecules
Prior to glutamate modeling, cells incubated as described in the previous step were pretreated with 10 nM of the polypeptide compound according to the present application for 30 minutes, followed by glutamate stimulation.
1.3. Propidium Iodide Staining
Cells treated with the polypeptide compound according to the present application were stained with propidium iodide to assess cell death. After discarding the culture medium, the cells were washed with PBS, and propidium iodide/Hoechst was added. After incubating for 30 minutes, the cells were removed and the staining solution was discarded. After washing with PBS, the cells were fixed and mounted, and subjected to image acquisition under a fluorescence microscope. The number of propidium iodide-positive cells and Hoechst-positive cells in the acquired images was counted to calculate the cell viability. MK-801 was used as the positive control compound. The normalized cell viability was calculated using the following formula: (cell viability of the compound group −cell viability of the glutamate group)/(cell viability of the positive control group −cell viability of the glutamate group)×100%.
Based on the above dose-response studies of the compound, the inhibitory effects of different small-molecule compounds at the same dose (10 nM) against excitotoxic death in PC-12 neurons cells were further compared.
Based on this, the dose-response relationship of the neuroprotective effect of the polypeptide compounds according to the present application on PC-12 neural cells was analyzed.

[2] = Pharmacokinetic characteristics in rats after intravenous administration (plasma, LC-MS/MS); format: in vivo; settings: SD rats, intravenous (tail vein), 10 mg/kg; for MRT inf: rat
Procedure: Experimental Example 2: Pharmacokinetic Characteristics of Various Compounds in Rats
Intravenous administration: Three SD rats per group were administered the compounds of Example 1, Example 2, Example 3, Example 6, Example 7, Example 17, and Example 19 via the tail vein, respectively, at a dose of 10 mg/kg. all SD rats were allowed free access to food and water after administration. Plasma was collected 3 min, 10 min, 30 min, 1 h, 2 h, 6 h, 10 h, and 24 h after administration, with 3 rats per time point.
Sample processing: Whole blood was anticoagulated with EDTA-K2. Within 30 minutes of collection, the blood was centrifuged at 3000 g for 10 minutes at 2-8 °C. After centrifugation, the separated plasma was transferred to new 1.5 mL centrifuge tubes and stored at −80 °C.
Analytical method: The concentrations of each compounds in rat plasma were determined by LC-MS/MS using Shimadzu LC30AD and AB Sciex QTRAP 6500+instruments. The relevant pharmacokinetic parameters after administration were calculated.

Row | SMILES | Normalized cell viability (%) [1] [%] | T1/2 [2] [h] | Vss [2] [L/kg] | MRT inf [2] [h] | EC50 ([1]; dose-response relationship in promoting the viability of PC-12 neurons, glutamate stimulation) [nM]
1 | CN[C@@H](Cc1ccc(O)cc1)C(=O)NCC(=O)N[C@@H](CCCNC(=N)N)C(=O)N[C@@H](CCCCN)C(=O)N[C@@H](CCCCN)C(=O)N[C@@H](CCCNC(=N)N)C(=O)N[C@@H](CCCNC(=N)N)C(=O)N[C@@H](CCC(=O)O)C(=O)N[C@@H](CCCNC(=N)N)C(=O)N[C@@H](CCCNC(=N)N)C(=O)N[C@@H](CCCNC(=N)N)C(=O)N[C@@H](CCCCN)C(=O)N[C@@H](CCCCN)C(=O)N[C@@H](CC(=O)O)C(=O)N[C@@H](CCCNC(=N)N)C(=O)N[C@@H](CC(=O)O)C(=O)N[C@@H](CCCCN)C(=O)N[C@@H](CC(C)C)C(=O)N[C@@H](CCCNC(=N)N)C(=O)N[C@@H](CCCNC(=N)N)C(=O)N[C@@H](CCC(=O)O)C(=O)N[C@@H](Cc1c[nH]cn1)C(=O)N[C@@H](CO)C(=O)N[C@@H](Cc1ccc(O)cc1)C(N)=O [Example 19] (H-[NMeY]GRKKRRERRRKKDRDKLRREHSY-NH2) | 87.71 | 1.16 | 9.11 | 1.73 | –
2 | CN[C@@H](Cc1ccc(O)cc1)C(=O)NCC(=O)N[C@@H](CCCNC(=N)N)C(=O)N[C@@H](CCCCN)C(=O)N[C@@H](CCCCN)C(=O)N[C@@H](CCCNC(=N)N)C(=O)N[C@@H](CCCNC(=N)N)C(=O)N[C@@H](CCC(N)=O)C(=O)N[C@@H](CCCNC(=N)N)C(=O)N[C@@H](CCCNC(=N)N)C(=O)N[C@@H](CCCNC(=N)N)C(=O)N[C@@H](CCCCN)C(=O)N[C@@H](CCCCN)C(=O)N[C@@H](CC(N)=O)C(=O)N[C@@H](CCCNC(=N)N)C(=O)N[C@@H](CC(N)=O)C(=O)N[C@@H](CCCCN)C(=O)N[C@@H](CC(C)C)C(=O)N[C@@H](CCCNC(=N)N)C(=O)N[C@@H](CCCNC(=N)N)C(=O)N[C@@H](CCC(N)=O)C(=O)N[C@@H](Cc1c[nH]cn1)C(=O)N[C@@H](CO)C(=O)N[C@@H](Cc1ccc(O)cc1)C(=O)O [Example 2] (H-[NMeY]GRKKRRQRRRKKNRNKLRRQHSY-OH) | 65.56 | 1.73 | 3.94 | 1.84 | 12.6
